Test results: patent US10227339B2, “Salt form and crystal form of 1,2,5-thiadiazolidin-1,1-dioxide, preparation method thereof and intermediate” (JIANGSU KANION PARMACEUTICAL CO. LTD, priority 2015, dated 2019)
pEC50: −log10 of the molar value. Converted amounts (≈) assume the structure as drawn. Read-outs that look alike come from different tables or passages of the source.

Tests used:
[1] = Solubility test of crystal form B in different solvents; assay type: physicochemical; details: thermodynamic from solid; for solubility at 4 h: read-out: Solubility (mg/mL) 4 h; for solubility at 24 h: read-out: Solubility (mg/mL) 24 h
Procedure: (§1) Solubility Test of Crystal Form B in Different Solvents Add 1^˜1.5 mg crystal form B of the compound 2 in volumetric flask, then single solvent or mixed solvent is added into the flask with multiple times until the solution become clear or solid particles disappear. The solubility of crystal form B in different solvents is determined thereby.

HFMD virus EV71 = assay: EV71 in-vitro cytopathic effect (CPE) test; assay type: cell-based; details: Enterovirus A, EV71, 72 h; RD cells, 3 days, CCK8 readout; read-out: EC50 by EC71 CPE test, EV71
Source text: Activity Evaluation In Vitro Experimental 1: Test of EV71 In-Vitro Cytopathic Effect (CPE) Purpose of Experiment: To test the in-vitro antiviral activity and cytotoxicity of a compound to HFMD virus EV71 by means of cytopathic effect (CPE) test. Test Materials: 1. Virus strain: Shenzhen/120F1/09 2. Cell line: RD cells of human rhabdomyoma 3. Cell culture media: DMEM medium added with 10% serum, Penicillin/Streptomycin and L-Glutannine (1^×) 4. Test reagent: cellular activity test reagent CCK8 Test Method: 1. Cell inoculation: digest off the RD cells from the attached state, then dilute them with culture medium to a density of 80000/ml and inoculate 100 μl into the micro wells of the 96-well plate. 2. Dilution of Compound: Step 1: prepare the dry powder of a compound to be tested into a 10 mM solution in DMSO. Then dilute the compound by three times to eight concentration points. Dilute the reference compounds with the same method. Step 2: further dilute the diluted solution of the compound in DMSO with cell culture medium. Add 10 μl DMSO solution for each well into 240 μl culture medium. 3. Add the diluted compound solution by 50 μl each well into the 96-well plate inoculated with cells (double holes, final concentration of DMSO is 1%). 4. […] Use ELIASA to read the absorbancy at the wavelength of 450 nm and 630 nm. […]

[2] = Solubility test of crystal form A in different solvents; assay type: physicochemical; details: thermodynamic from solid
Procedure: as §1, with “Form a” for “Form B”, “form A” for “form B”, “compound 1” for “compound 2”

[3] = aqueous buffer, pH 3.5 buffer solution
[4] = aqueous buffer, pH 4.5 buffer solution
[5] = aqueous buffer, pH 5.5 buffer solution
[6] = aqueous buffer, pH 6.5 buffer solution
[7] = aqueous buffer, pH 6.8 buffer solution
[8] = aqueous buffer, pH 7.5 buffer solution
[9] = saline or isotonic, normal saline
[10] = simulated gastric fluid, 0.01N HCl
[11] = simulated gastric fluid, 0.1N HCl

CCn1nnc(-c2ccc(OCCC(C)(C)CCN3CCN(c4ccnc(N)c4)S3(=O)=O)nc2)n1 [Compound 2]
solubility at 4 h [1, 3]: 232 mg/mL (≈ 463 mM)
solubility at 24 h [1, 3]: 186 mg/mL (≈ 370 mM)
solubility at 4 h [1, 4]: 6.12 mg/mL (≈ 12.2 mM)
solubility at 24 h [1, 4]: 4.54 mg/mL (≈ 9.05 mM)
solubility at 4 h [1, 5]: < 0.1 mg/mL
solubility at 24 h [1, 5]: < 0.1 mg/mL
solubility at 4 h [1, 6]: < 0.1 mg/mL
solubility at 24 h [1, 6]: < 0.1 mg/mL
solubility at 4 h [1, 7]: < 0.1 mg/mL
solubility at 24 h [1, 7]: < 0.1 mg/mL
solubility at 4 h [1, 8]: < 0.1 mg/mL
solubility at 24 h [1, 8]: < 0.1 mg/mL
solubility at 4 h [1, 9]: 42.9 mg/mL (≈ 85.5 mM)
solubility at 24 h [1, 9]: 43.4 mg/mL (≈ 86.6 mM)
solubility at 4 h [1, 10]: > 998 mg/mL
solubility at 24 h [1, 10]: > 986 mg/mL
solubility at 4 h [1, 11]: > 873 mg/mL
solubility at 24 h [1, 11]: > 935 mg/mL
solubility at 4 h ([1]; water): 416 mg/mL (≈ 829 mM)
solubility at 24 h ([1]; water): 346 mg/mL (≈ 690 mM)

CCn1nnc(-c2ccc(OCCC(C)(C)CCN3CCN(c4ccnc(N)c4)S3(=O)=O)nc2)n1 [Compound 1]
pEC50 (HFMD virus EV71): ≥ 8.00
solubility ([2]; aqueous with cosolvent or surfactant or cyclodextrin, solvent: Acetone-water (3:1)): < 2240 µg/mL
solubility ([2]; aqueous with cosolvent or surfactant or cyclodextrin, solvent: Ethanol-water (3:1)): < 2320 µg/mL
solubility ([2]; aqueous with cosolvent or surfactant or cyclodextrin, solvent: Methanol-water (3:1)): < 2070 µg/mL
solubility ([2]; organic solvent or mixture, solvent: 1,4-dioxane): 11800 to 13200 µg/mL (≈ 23.5 to 26.3 mM)
solubility ([2]; organic solvent or mixture, solvent: 2-Methyltetrahydrofuran): < 2180 µg/mL
solubility ([2]; organic solvent or mixture, solvent: acetone): 5580 to 7430 µg/mL (≈ 11.1 to 14.8 mM)
solubility ([2]; organic solvent or mixture, solvent: ethanol): < 2090 µg/mL
solubility ([2]; organic solvent or mixture, solvent: ethyl acetate): < 2130 µg/mL
solubility ([2]; organic solvent or mixture, solvent: methanol): < 1980 µg/mL
